Converted amounts (≈) assume the structure as drawn.
Tests used:
[1] = tested on: Eschericia coli (DSM 1116); assay: Antimicrobial microdilution assay (MIC); assay type: cell-based, Escherichia coli; conditions: seven 1:2 serial dilution steps, Mueller–Hinton bouillon, start OD600 0.01, 30 °C, 160 rpm overnight; for MIC, Gram-Negative, Ec: microdilution in 96-well plates
From the text: (§1) The panel of test microorganisms consisted of the following multi drug-resistant (MDR) bacteria: Gram-negative Escherichia coli (DSM 1116) and Pseudomonas aeruginosa (PA16); Gram-positive Bacillus subtilis (DSM 10), Staphylococcus aureus (DSM 346), and Mycobacterium smegmatis (ATCC 7000048); yeasts Candida albicans (DSM 1665) and Rhodotorula glutinis (DSM 10134); and filamentous fungi Mucor hiemalis (DSM 2656). The positive controls were nystatin, oxytetracyclin, kanamycin, and gentamycin, with a concentration of 1 mg/mL. Compounds 1–4 were prepared in a concentration of 1 mg/mL MeOH. The activity of the samples was observed by using the microdilution technique in 96 well plates for tissue cultures (TPP). As much as 20 µL of the MeOH solution of each compound (1 mg/mL) was mixed with 300 µL of bacterial or fungal suspension, except for the positive controls where 2 µL of either oxytetracycline, kanamycin, and gentamycin in 300 µL of bacterial suspension was used. The samples were tested in seven 1:2 serial dilution steps (concentrations A to H) in 96-well plates. Bacteria were cultivated in Mueller–Hinton bouillon (Roth) and fungi/yeasts in MYC medium (1.0% phytone peptone, 1.0% glucose, and 1.19% HEPES, pH 7.0). Start OD600 was 0.01 for B. subtilis, E. coli, and S. aureus; start OD548 was 0.1 for M. hiemalis, C. albicans, R. glutinis, M. smegmatis, and P. aeruginosa. The test organisms were cultivated at 30 °C and 160 rpm overnight.

[2] = tested on: Mucor hiemalis (DSM 2656); assay type: cell-based; conditions: for MIC, Fungi, Mh: Mucor hiemalis (DSM 2656), microdilution in 96-well plates, seven 1:2 serial dilution steps, MYC medium pH 7.0, start OD548 0.1, 30 °C, 160 rpm overnight
From the text: as §1

[3] = tested on: Rhodoturula glutinis (DSM 10134); assay type: cell-based; conditions: for MIC, Fungi, Rg: Rhodoturula glutinis (DSM 10134), microdilution in 96-well plates, seven 1:2 serial dilution steps, MYC medium pH 7.0, start OD548 0.1, 30 °C, 160 rpm overnight
From the text: as §1

[4] = tested on: Hepatitis C Virus (HCV), Jc1-derived Renilla reporter viruses in Huh7.5 Fluc cells; assay: Inhibitory effects on Hepatitis C Virus (HCV) infectivity; assay type: cell-based; conditions: 10 µg/mL, Huh7.5 Fluc cells infected with Jc1-derived Renilla reporter viruses, Renilla luciferase read-out, compared to positive control EGCG, Figure 4A
Experimental: (§2) The anti-HCV assay was performed as mentioned in [5]. In brief, Huh7.5 cells stably expressing Firefly luciferase (Huh7.5 Fluc) were cultured in Dulbecco’s modified minimum essential medium (DMEM, Gibco, Thermo Fisher Scientific, Schwerte, Germany) and maintained in a 37 °C environment with 5% CO2 supply. Samples were added to the cells, and then the cells were infected with Jc1-derived Renilla reporter viruses. Compounds and the positive control (Epigallocatechin gallate, EGCG) were tested at a concentration of 10 µg/mL. Renilla and Firefly luciferase activities from the infected cells were measured on a Berthold Technologies Centro XS3 Microplate Luminometer (Bad Wildbad, Germany) as indicators of viral genome replication and cell viability, respectively.

[5] = tested on: Bacillus subtilis (DSM 10); assay: microbe, parasite or virus in culture; assay type: cell-based; conditions: seven 1:2 serial dilution steps, Mueller–Hinton bouillon, start OD600 0.01, 30 °C, 160 rpm overnight
From the text: as §1

[6] = tested on: Staphylococcus aureus (DSM 346); assay: microbe, parasite or virus in culture; assay type: cell-based; conditions: seven 1:2 serial dilution steps, Mueller–Hinton bouillon, start OD600 0.01, 30 °C, 160 rpm overnight; for MIC, Gram-Positive, Sa: microdilution in 96-well plates
From the text: as §1

[7] = tested on: Candida albicans (DSM 1665); assay: Antimicrobial microdilution assay (MIC); assay type: cell-based; conditions: microdilution in 96-well plates, seven 1:2 serial dilution steps, MYC medium pH 7.0, start OD548 0.1, 30 °C, 160 rpm overnight
From the text: as §1

[8] = tested on: Pseudomonas aeruginosa (PA14); assay: Antimicrobial microdilution assay (MIC); assay type: cell-based; conditions: microdilution in 96-well plates, seven 1:2 serial dilution steps, Mueller–Hinton bouillon, start OD548 0.1, 30 °C, 160 rpm overnight
From the text: as §1

[9] = tested on: Mycobacterium smegmatis (ATCC 700084); assay: Antimicrobial microdilution assay (MIC); assay type: cell-based; conditions: microdilution in 96-well plates, seven 1:2 serial dilution steps, Mueller–Hinton bouillon, start OD548 0.1, 30 °C, 160 rpm overnight
From the text: as §1

[10] = tested on: Huh7.5 cells; assay: Viability of Huh7.5 cells (Firefly luciferase) in the anti-HCV assay; assay type: cell-based; conditions: 10 µg/mL; Firefly luciferase read-out; compared to positive control EGCG; Figure 4B
Experimental: as §2

[11] = tested on: Bacillus subtilis (Bs); conditions: pH values from 5.5 to 9.5; cited from earlier work
From the text: Previous studies had also shown antifungal activity of valinomycin against the plant pathoge ...

Row | Compound | MIC, Gram-Negative, Ec [1] | MIC, Fungi, Mh [2] [µg/mL] | MIC, Fungi, Rg [3] [µg/mL] | Activity against HCV infectivity (HCV-infected hepatoma cells), in words [4] | Viability of Huh7.5 cells after exposure to the test compounds, in words [10] | other results
1 | CC(C)[C@@H]1NC(=O)[C@H](C)OC(=O)[C@@H](C(C)C)NC(=O)[C@@H](C(C)C)OC(=O)[C@H](C(C)C)NC(=O)[C@H](C)OC(=O)[C@@H](C(C)C)NC(=O)[C@@H](C(C)C)OC(=O)[C@H](C(C)C)NC(=O)[C@H](C)OC(=O)[C@@H](C(C)C)NC(=O)[C@H](C)OC1=O [Streptodepsipeptide P11B (1), Streptodepsipeptide P11B] | - | 16.6 (≈ 15.3 µM) | 33.3 (≈ 30.7 µM) | significantly less affected the HCV |  | 
2 | CN(C)[C@@H]1C(O)=C(C(N)=O)C(=O)[C@@]2(O)C(O)=C3C(=O)c4c(O)cccc4[C@@](C)(O)[C@H]3[C@H](O)[C@@H]12 [Oxytetracycline, reference compound] |  |  |  |  |  | MIC ([5]; DSM10, microdilution in 96-well plates, read-out: MIC, Gram-Positive, Bs): 8.3 µg/mL (≈ 18 µM); MIC ([6]; DSM346, microdilution in 96-well plates, read-out: MIC, Gram-Positive, Sa): 0.2 µg/mL (≈ 0.434 µM); MIC ([1]; Escherichia coli, DSM1116, microdilution in 96-well plates, read-out: MIC, Gram-Negative, Ec): 1.7 µg/mL (≈ 3.69 µM)
3 | C[C@@H]1[C@H](O)[C@@H](C)/C=C/C=C/CC/C=C/C=C/C=C/C=C/C(O[C@H]2O[C@H](C)[C@@H](O)[C@H](N)[C@@H]2O)CC2O[C@](O)(CC(O)C(O)CCC(O)CC(O)CC(O)CC(=O)O[C@H]1C)CC(O)C2C(=O)O (stereo partly drawn) [Nystatin, reference compound] |  | 16.6 (≈ 17.9 µM) | 4.2 (≈ 4.54 µM) |  |  | MIC, Fungi, Ca [7]: 33.3 µg/mL (≈ 36 µM)
4 | Gentamycin |  |  |  |  |  | MIC, Gram-Negative, Pa [8]: 0.4 µg/mL
5 | NC[C@H]1O[C@H](O[C@H]2[C@H](O)[C@@H](O[C@H]3O[C@H](CO)[C@@H](O)[C@H](N)[C@H]3O)[C@H](N)C[C@@H]2N)[C@H](O)[C@@H](O)[C@@H]1O [Kanamycin] |  |  |  |  |  | MIC, Gram-Positive, Ms [9]: 3.3 µg/mL (≈ 6.81 µM)
6 | CC(C)[C@@H]1NC(=O)[C@H](C)OC(=O)[C@@H](C(C)C)NC(=O)[C@@H](C(C)C)OC(=O)[C@H](C(C)C)NC(=O)[C@H](C)OC(=O)[C@@H](C(C)C)NC(=O)[C@@H](C(C)C)OC(=O)[C@H](C(C)C)NC(=O)[C@H](C)OC(=O)[C@@H](C(C)C)NC(=O)[C@@H](C(C)C)OC1=O [Valinomycin (3), Valinomycin] | - | 2.1 (≈ 1.89 µM) | 4.2 (≈ 3.78 µM) | potent antiviral activity | lower than for the positive control | MIC, Gram-Positive, Sa [6]: 4.2 µg/mL (≈ 3.78 µM); Antifungal strength relative to nystatin against Mh ([2]; comparison of MIC values, Mucor hiemalis): eight times stronger than nystatin; Antifungal strength relative to nystatin against Rg ([3]; comparison of MIC values, Rg): as strong as nystatin; Antibacterial activity against Bs as a function of pH, in words [11]: increase in antibacterial activity against Bs at higher pH values
7 | CC[C@H]1OC(=O)[C@H](C(C)C)NC(=O)[C@H](C)OC(=O)[C@@H](C(C)C)NC(=O)[C@@H](C(C)C)OC(=O)[C@H](C(C)C)NC(=O)[C@H](C)OC(=O)[C@@H](C(C)C)NC(=O)[C@@H](C(C)C)OC(=O)[C@H](C(C)C)NC(=O)[C@H](C)OC(=O)[C@@H](C(C)C)NC1=O [Streptodepsipeptide P11A (2), Streptodepsipeptide P11A] | - | 8.3 (≈ 7.56 µM) | 8.3 (≈ 7.56 µM) | potent antiviral activity | lower than for the positive control | 
8 | CCC(C)[C@H]1OC(=O)[C@H](C(C)C)NC(=O)[C@H](C)OC(=O)[C@@H](C(C)C)NC(=O)[C@@H](C(C)C)OC(=O)[C@H](C(C)C)NC(=O)[C@H](C)OC(=O)[C@@H](C(C)C)NC(=O)[C@@H](C(C)C)OC(=O)[C@H](C(C)C)NC(=O)[C@H](C)OC(=O)[C@@H](C(C)C)NC1=O (stereo partly drawn) [Streptodepsipeptide SV21 (4), Streptodepsipeptide SV21] | - | 16.6 (≈ 14.8 µM) | 16.6 (≈ 14.8 µM) |  | lower than for the positive control | MIC, Gram-Positive, Bs ([5]; microdilution in 96-well plates): 33.3 µg/mL (≈ 29.6 µM); MIC, Gram-Positive, Sa [6]: 16.6 µg/mL (≈ 14.8 µM); Activity against HCV infectivity (HCV-infected hepatoma cells), in words ([4]; listed as 4): potent antiviral activity

From PMC7912928, “Anti-Infective and Antiviral Activity of Valinomycin and Its Analogues from a Sea Cucumber-Associated Bacterium, Streptomyces sp. SV 21” (Marine Drugs, 2021)
